The record followed here is patent publication US20260015350A1, “AZAQUINAZOLINE PAN-KRAS INHIBITORS” (Mirati Therapeutics, Inc., priority 2022, published 2026).

One assay concerns the target T1, KRas^G12D (Homo sapiens, UniProt P01116, G12D).
T1 construct: Biotinylated KRas (corresponding to amino acids 1-169, produced at Accelegan Inc.); biotin (biotinylated); purchased Accelegan Inc
Put plainly: KRas binding assay (TR-FRET tracer displacement), KRas G12D.

A further assay concerns the target T2, KRas^G12R (Homo sapiens, UniProt P01116, G12R).
T2 construct: Biotinylated KRas (corresponding to amino acids 1-169, produced at Accelegan Inc.); biotin (biotinylated); purchased Accelegan Inc
Put plainly: KRas binding assay (TR-FRET tracer displacement), KRas G12R.

The next assay concerns the target T3, KRas^G12V (Homo sapiens, UniProt P01116, G12V).
T3 construct: Biotinylated KRas (corresponding to amino acids 1-169, produced at Accelegan Inc.); biotin (biotinylated); purchased Accelegan Inc
Put plainly: KRas binding assay (TR-FRET tracer displacement), KRas G12V.

Assay [1] relates to KRas-mediated phosphorylation of ERK in AsPC-1 cells. Put plainly: Inhibition of KRas-mediated phosphorylation of ERK (Cisbio HTRF pERK), AsPC-1 cells. The format is cell-based. The settings on record: Homo sapiens, ASPC1, AsPC-1 cells; HTRF pERK. Put shortly: (§1)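 Phosphorylated ERK was quantified by HTRF using d2-conjugate and Cryptate antibodies added to lysates for 2 hrs at room temperature.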

For assay [2], the system named is KRas-mediated phosphorylation of ERK in H727 cells. Put plainly: Inhibition of KRas-mediated phosphorylation of ERK (Cisbio HTRF pERK), H727 cells. Type of assay: cell-based. The settings on record: Homo sapiens, NCI-H727, H727 cells; HTRF pERK. Put shortly: as §1

Molecules are shown by their SMILES.

T1 sequence (P01116 1-169 isoform P01116-2 G12D): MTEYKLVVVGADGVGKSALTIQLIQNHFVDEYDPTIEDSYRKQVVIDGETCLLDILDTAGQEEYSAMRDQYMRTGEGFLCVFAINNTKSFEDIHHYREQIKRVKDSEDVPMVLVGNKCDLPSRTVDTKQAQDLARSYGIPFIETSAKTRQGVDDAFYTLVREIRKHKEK
T3 sequence (P01116 1-169 isoform P01116-2 G12V): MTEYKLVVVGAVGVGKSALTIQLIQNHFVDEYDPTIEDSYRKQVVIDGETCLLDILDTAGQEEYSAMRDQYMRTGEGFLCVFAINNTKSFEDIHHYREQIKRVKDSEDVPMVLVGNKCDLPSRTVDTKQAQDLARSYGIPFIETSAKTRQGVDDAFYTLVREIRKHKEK
T2 sequence (P01116 1-169 isoform P01116-2 G12R): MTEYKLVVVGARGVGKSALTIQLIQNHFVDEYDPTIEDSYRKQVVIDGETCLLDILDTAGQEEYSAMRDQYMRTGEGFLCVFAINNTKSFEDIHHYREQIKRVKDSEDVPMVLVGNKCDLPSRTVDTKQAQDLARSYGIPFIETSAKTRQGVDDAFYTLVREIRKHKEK

Consider `CCc1c(F)ccc2cc(O)cc(-c3ncc4c(N5CCC(N6CCCCS6(=O)=O)C5)nc(OC[C@@]56CCCN5C[C@H](F)C6)nc4c3F)c12` (stereo partly drawn) [Example 655, 2-(1-(7-(8-ethyl-7-fluoro-3-hydroxynaphthalen-1-yl)-8-fluoro-2-(((2R,7aS)-2-fluorotetrahydro-1H-pyrrolizin-7a(5H)-yl)methoxy)pyrido[4,3-d]pyrimidin-4-yl)pyrrolidin-3-yl)-1,2-thiazinane 1,1-dioxide], for which the half-maximal inhibitory concentration (IC50) on KRas^G12D is 2880 nM; at KRas^G12R, 633 nM; at KRas^G12V, 291 nM; in assay [1], above 10000 nM; in assay [2], above 10000 nM.

For the compound `CCc1c(F)ccc2cc(O)cc(-c3ncc4c(N5CC6(C)CC(CO)(C5)C6)nc(OC[C@@]56CCCN5C[C@H](F)C6)nc4c3F)c12` [Example 565, 5-ethyl-6-fluoro-4-(8-fluoro-2-(((2R,7aS)-2-fluorohexahydro-1H-pyrrolizin-7a-yl)methoxy)-4-(1-(hydroxymethyl)-5-methyl-3-azabicyclo[3.1.1]heptan-3-yl)pyrido[4,3-d]pyrimidin-7-yl)naphthalen-2-ol], the IC50 on KRas^G12D was 1160 nM; on KRas^G12R, 1030 nM; at KRas^G12V, 908 nM; in assay [1], above 10000 nM; in assay [2] it was above 10000 nM.

On to `CCc1c(F)ccc2cc(O)cc(-c3ncc4c(N5C[C@@H]6[C@@H](CS(N)(=O)=O)NC(=O)[C@@H]6C5)nc(OC[C@@]56CCCN5C[C@H](F)C6)nc4c3F)c12` [Example 665, 1-((1S,3aS,6aR)-5-(7-(8-ethyl-7-fluoro-3-hydroxynaphthalen-1-yl)-8-fluoro-2-(((2R,7aS)-2-fluorotetrahydro-1H-pyrrolizin-7a(5H)-yl)methoxy)pyrido[4,3-d]pyrimidin-4-yl)-3-oxooctahydropyrrolo[3,4-c]pyrrol-1-yl)methanesulfonamide], for which the IC50 on KRas^G12D is 1980 nM; at KRas^G12R, 1250 nM; on KRas^G12V it was 966 nM; in assay [1], 1240 nM; in assay [2], 3120 nM.

Consider `CCc1c(F)ccc2cc(O)cc(-c3ncc4c(NCC5CNC(=O)CO5)nc(OC[C@@]56CCCN5C[C@H](F)C6)nc4c3F)c12` (stereo partly drawn) [Example 556, 6-(((7-(8-ethyl-7-fluoro-3-hydroxynaphthalen-1-yl)-8-fluoro-2-(((2R,7aS)-2-fluorotetrahydro-1H-pyrrolizin-7a(5H)-yl)methoxy)pyrido[4,3-d]pyrimidin-4-yl)amino)methyl) morpholin-3-one], for which the IC50 is 10 nM on KRas^G12D; below 2 nM on KRas^G12R; 2 nM at KRas^G12V; above 10000 nM in assay [1]; 2510 nM in assay [2].

On to `CCc1c(F)ccc2cc(O)cc(-c3ncc4c(N5CCCn6nc(C(=O)N(C)CCO)cc6C5)nc(OC[C@@]56CCCN5C[C@H](F)C6)nc4c3F)c12` [Example 679, 5-(7-(8-ethyl-7-fluoro-3-hydroxynaphthalen-1-yl)-8-fluoro-2-(((2R,7aS)-2-fluorohexahydro-1H-pyrrolizin-7a-yl)methoxy)pyrido[4,3-d]pyrimidin-4-yl)-N-(2-hydroxyethyl)-N-methyl-5,6,7,8-tetrahydro-4H-pyrazolo[1,5-a][1,4]diazepine-2-carboxamide], for which the IC50 at KRas^G12D was 124 nM; on KRas^G12R it was 190 nM; at KRas^G12V, 105 nM; in assay [1], above 10000 nM; in assay [2], 9490 nM.

For `CCc1c(F)ccc2cc(O)cc(-c3ncc4c(N5C[C@H]6C[C@@H](C5)[C@@H](O)[C@@H]6O)nc(OC[C@@]56CCCN5C[C@H](F)C6)nc4c3F)c12` (single isomer, unassigned) [Example 571], the IC50 on KRas^G12D was 300 nM; on KRas^G12R, 59 nM; at KRas^G12V, 62 nM; in assay [1], above 10000 nM; in assay [2] it was above 10000 nM.

For `CCc1c(F)ccc2cc(O)cc(-c3ncc4c(N5CCC[C@@](C)(O)C5)nc(N5CC(N)C5)nc4c3F)c12` [Example 527, (R)-1-(2-(3-aminoazetidin-1-yl)-7-(8-ethyl-7-fluoro-3-hydroxynaphthalen-1-yl)-8-fluoropyrido[4,3-d]pyrimidin-4-yl)-3-methylpiperidin-3-ol], the IC50 was 116 nM at KRas^G12D; 193 nM on KRas^G12R; 150 nM on KRas^G12V; above 10000 nM in assay [1]; above 10000 nM in assay [2].

With `O=C1NS(=O)(=O)NC12CCCN(c1nc(OC[C@@]34CCCN3C[C@H](F)C4)nc3c(F)c(-c4cc(O)cc5ccc(F)c(Cl)c45)ncc13)C2` (stereo partly drawn) [Example 816, 7-(7-(8-chloro-7-fluoro-3-hydroxynaphthalen-1-yl)-8-fluoro-2-(((2R,7aS)-2-fluorotetrahydro-1H-pyrrolizin-7a(5H)-yl)methoxy)pyrido[4,3-d]pyrimidin-4-yl)-2-thia-1,3,7-triazaspiro[4.5]decan-4-one 2,2-dioxide], the IC50 at KRas^G12D was 8 nM; on KRas^G12R, 3 nM; at KRas^G12V, 3 nM; in assay [1] it was above 10000 nM; in assay [2], above 10000 nM.

As to `CCc1c(F)ccc2cc(O)cc(-c3ncc4c(N5CCn6ncc(C#N)c6C5)nc(OC[C@@]56CCCN5C[C@H](F)C6)nc4c3F)c12` [Example 865, 5-(7-(8-ethyl-7-fluoro-3-hydroxynaphthalen-1-yl)-8-fluoro-2-(((2R,7aS)-2-fluorotetrahydro-1H-pyrrolizin-7a(5H)-yl)methoxy)pyrido[4,3-d]pyrimidin-4-yl)-4,5,6,7-tetrahydropyrazolo[1,5-a]pyrazine-3-carbonitrile], the IC50 was 809 nM on KRas^G12D; 282 nM at KRas^G12R; 310 nM at KRas^G12V; 7700 nM in assay [1]; above 10000 nM in assay [2].

With `CCc1c(F)ccc2cc(O)cc(-c3ncc4c(N5CCCC(C6CCC(=O)N6)C5)nc(OC[C@@]56CCCN5C[C@H](F)C6)nc4c3F)c12` (stereo partly drawn) [Example 620, 5-(1-(7-(8-ethyl-7-fluoro-3-hydroxynaphthalen-1-yl)-8-fluoro-2-(((2R,7aS)-2-fluorohexahydro-1H-pyrrolizin-7a-yl)methoxy)pyrido[4,3-d]pyrimidin-4-yl)piperidin-3-yl)pyrrolidin-2-one], the IC50 worked out at 495 nM on KRas^G12D; 376 nM at KRas^G12R; 248 nM at KRas^G12V; 9680 nM in assay [1]; 6800 nM in assay [2].

With `CCc1c(F)ccc2cc(O)cc(-c3ncc4c(N5CCCC(S(=O)(=O)C(F)F)C5)nc(OC[C@@]56CCCN5C[C@H](F)C6)nc4c3F)c12` (stereo partly drawn) [Example 652, 4-(4-(3-((difluoromethyl)sulfonyl)piperidin-1-yl)-8-fluoro-2-(((2R,7aS)-2-fluorotetrahydro-1H-pyrrolizin-7a(5H)-yl)methoxy)pyrido[4,3-d]pyrimidin-7-yl)-5-ethyl-6-fluoronaphthalen-2-ol], the IC50 is 125 nM at KRas^G12D; 51 nM at KRas^G12R; 40 nM at KRas^G12V; 2280 nM in assay [1]; 1390 nM in assay [2].

In the case of `CCc1c(F)ccc2cc(O)cc(-c3ncc4c(N5CC6(CO)CC5CCO6)nc(OC[C@@]56CCCN5C[C@H](F)C6)nc4c3F)c12` (stereo partly drawn) [Example 572, 5-ethyl-6-fluoro-4-(8-fluoro-2-(((2R,7aS)-2-fluorohexahydro-1H-pyrrolizin-7a-yl)methoxy)-4-(1-(hydroxymethyl)-2-oxa-6-azabicyclo[3.2.1]octan-6-yl)pyrido[4,3-d]pyrimidin-7-yl)naphthalen-2-ol], the IC50 is 1970 nM at KRas^G12D; 162 nM on KRas^G12R; 266 nM on KRas^G12V; above 10000 nM in assay [1]; 4190 nM in assay [2].

Turning to `CCc1c(F)ccc2cc(O)cc(-c3ncc4c(N5CCCn6nc(C(=O)N(C)C)cc6C5)nc(N5CC(C)(N)C5)nc4c3F)c12` [Example 532, 5-(2-(3-amino-3-methylazetidin-1-yl)-7-(8-ethyl-7-fluoro-3-hydroxynaphthalen-1-yl)-8-fluoropyrido[4,3-d]pyrimidin-4-yl)-N,N-dimethyl-5,6,7,8-tetrahydro-4H-pyrazolo[1,5-a][1,4]diazepine-2-carboxamide], the IC50 at KRas^G12D is 9 nM; on KRas^G12R, 24 nM; on KRas^G12V it was 15 nM; in assay [1], above 10000 nM; in assay [2], above 10000 nM.

For the compound `CCc1c(F)ccc2cc(O)cc(-c3ncc4c(N5CCCC6(CCS6(=O)=O)C5)nc(OC[C@@]56CCCN5C[C@H](F)C6)nc4c3F)c12` (stereo partly drawn) [Example 628, 6-(7-(8-ethyl-7-fluoro-3-hydroxynaphthalen-1-yl)-8-fluoro-2-(((2R,7aS)-2-fluorohexahydro-1H-pyrrolizin-7a-yl)methoxy)pyrido[4,3-d]pyrimidin-4-yl)-1-thia-6-azaspiro[3.5]nonane 1,1-dioxide], the IC50 is 78 nM at KRas^G12D; 180 nM on KRas^G12R; 107 nM on KRas^G12V; 3260 nM in assay [1]; 2810 nM in assay [2].

`CCc1c(F)ccc2cc(O)cc(-c3ncc4c(N5CCC6CCCC5C6)nc(OC[C@@]56CCCN5C[C@H](F)C6)nc4c3F)c12` (stereo partly drawn) [Example 552, 4-(4-(2-azabicyclo[3.3.1]nonan-2-yl)-8-fluoro-2-(((2R,7aS)-2-fluorotetrahydro-1H-pyrrolizin-7a(5H)-yl)methoxy)pyrido[4,3-d]pyrimidin-7-yl)-5-ethyl-6-fluoronaphthalen-2-ol]: the IC50 was 810 nM at KRas^G12D; 71 nM at KRas^G12R; 244 nM on KRas^G12V; 9330 nM in assay [1]; 5300 nM in assay [2].
